Measured values published in ChEMBL document CHEMBL1201862, “PubChem BioAssay data set” (2004).
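Cultured in 96-well plates, cells were exposed to test compound for 48 hours across five concentrations. Here, GI50 denotes the concentration required for 50% inhibition of growth.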 Activity calls are given as the source filed them. Rule as the data show it: active = GI50 up to about 1.1 µM and inactive = higher.

Key:
Assay in all cases: NCI-60 cell line screen, 48 h
K562 = system: K562
NCI-H460 = system: NCI-H460
HCT-116 = system: HCT-116
OVCAR-8 = system: OVCAR-8
NCI-H23 = system: NCI-H23
CAKI-1 = system: CAKI-1
SN12C = system: SN12C
UACC-62 = system: UACC-62
U-251 = system: U-251
PC-3 = system: PC-3
Malme-3M = system: Malme-3M
UO-31 = system: UO-31
SF-268 = system: SF-268
RXF 393 = system: RXF 393
786-0 = system: 786-0
HCT-15 = system: HCT-15
CCRF-CEM = system: CCRF-CEM
OVCAR-5 = system: OVCAR-5
UACC-257 = system: UACC-257
DU-145 = system: DU-145
BT-549 = system: BT-549
M14 = system: M14
COLO 205 = system: COLO 205
SF-295 = system: SF-295
NCI-H226 = system: NCI-H226
SK-OV-3 = system: SK-OV-3
HOP-92 = system: HOP-92
SK-MEL-2 = system: SK-MEL-2
LOX IMVI = system: LOX IMVI
A549 = system: A549
SW-620 = system: SW-620
TK-10 = system: TK-10
MOLT-4 = system: MOLT-4
NCI-H522 = system: NCI-H522
EKVX = system: EKVX
A498 = system: A498
ACHN = system: ACHN
IGROV-1 = system: IGROV-1
HCC 2998 = system: HCC 2998
OVCAR-4 = system: OVCAR-4
MDA-N = system: MDA-N
SK-MEL-5 = system: SK-MEL-5
MDA-MB-435 = system: MDA-MB-435
MDA-MB-231 = system: MDA-MB-231
MCF7 = system: MCF7
HL-60 = system: HL-60
Hs-578T = system: Hs-578T
KM12 = system: KM12
T47D = system: T47D
HT-29 = system: HT-29
NCI/ADR-RES = system: NCI/ADR-RES
SK-MEL-28 = system: SK-MEL-28
SNB-19 = system: SNB-19
SF-539 = system: SF-539
SR = system: SR
OVCAR-3 = system: OVCAR-3
RPMI-8226 = system: RPMI-8226
SNB-75 = system: SNB-75
HOP-62 = system: HOP-62

## CC(C)C(C)C(O)C(O)C(C)C1CCC2C3COC(=O)C4CC(O)C(O)CC4(C)C3CCC12C (stereo unspecified)
K562
  GI50: 39 µM (inactive)
NCI-H460
  GI50: 57.9 µM (inactive)
HCT-116
  GI50: > 100 µM (inactive)
OVCAR-8
  GI50: 62.8 µM (inactive)
NCI-H23
  GI50: 92.7 µM (inactive)
CAKI-1
  GI50: 11.7 µM (inactive)
SN12C
  GI50: 33.7 µM (inactive)
UACC-62
  GI50: > 100 µM (inactive)
U-251
  GI50: 62.5 µM (inactive)
PC-3
  GI50: 46.9 µM (inactive)
Malme-3M
  GI50: > 100 µM (inactive)
UO-31
  GI50: 58.1 µM (inactive)
SF-268
  GI50: 79.3 µM (inactive)
RXF 393
  GI50: 20.2 µM (inactive)
786-0
  GI50: > 100 µM (inactive)
HCT-15
  GI50: 66.1 µM
CCRF-CEM
  GI50: 22.8 µM (inactive)
OVCAR-5
  GI50: > 100 µM (inactive)
UACC-257
  GI50: > 100 µM (inactive)
DU-145
  GI50: > 100 µM (inactive)
BT-549
  GI50: 88.3 µM (inactive)
M14
  GI50: > 100 µM (inactive)
COLO 205
  GI50: 94 µM (inactive)
SF-295
  GI50: 78.5 µM (inactive)
NCI-H226
  GI50: 23.2 µM (inactive)
SK-OV-3
  GI50: > 100 µM (inactive)
HOP-92
  GI50: 32.8 µM (inactive)
SK-MEL-2
  GI50: > 100 µM (inactive)
LOX IMVI
  GI50: > 100 µM (inactive)
A549
  GI50: 48.9 µM (inactive)
SW-620
  GI50: > 100 µM (inactive)
TK-10
  GI50: > 100 µM (inactive)
MOLT-4
  GI50: 27.1 µM (inactive)
NCI-H522
  GI50: 55.2 µM (inactive)
EKVX
  GI50: 43.7 µM (inactive)
A498
  GI50: > 100 µM (inactive)
ACHN
  GI50: 25.4 µM (inactive)
IGROV-1
  GI50: > 100 µM (inactive)
HCC 2998
  GI50: > 100 µM (inactive)
OVCAR-4
  GI50: 59 µM (inactive)
MDA-N
  GI50: 56 µM (inactive)
SK-MEL-5
  GI50: 35 µM (inactive)
MDA-MB-435
  GI50: > 100 µM (inactive)
MDA-MB-231
  GI50: > 100 µM (inactive)
MCF7
  GI50: 56.4 µM (inactive)
HL-60
  GI50: > 10 µM (inactive)
Hs-578T
  GI50: 78.7 µM (inactive)
KM12
  GI50: 50.2 µM (inactive)
T47D
  GI50: 40.9 µM (inactive)
HT-29
  GI50: 35.9 µM (inactive)
NCI/ADR-RES
  GI50: > 100 µM (inactive)
SK-MEL-28
  GI50: > 100 µM (inactive)
SNB-19
  GI50: 28.1 µM (inactive)
SF-539
  GI50: > 100 µM (inactive)

## CCC(NC(C)c1ccccc1)C(=O)c1ccc(OCc2ccccc2)c(OCc2ccccc2)c1 (stereo unspecified)
K562
  GI50: 4.81 µM (inactive)
NCI-H460
  GI50: > 100 µM (inactive)
HCT-116
  GI50: > 100 µM (inactive)
OVCAR-8
  GI50: > 100 µM (inactive)
NCI-H23
  GI50: > 100 µM (inactive)
CAKI-1
  GI50: > 100 µM (inactive)
SN12C
  GI50: > 100 µM (inactive)
UACC-62
  GI50: > 100 µM (inactive)
U-251
  GI50: > 100 µM (inactive)
PC-3
  GI50: > 100 µM (inactive)
Malme-3M
  GI50: > 100 µM (inactive)
UO-31
  GI50: > 100 µM (inactive)
SR
  GI50: > 100 µM (inactive)
OVCAR-3
  GI50: > 100 µM (inactive)
SF-268
  GI50: > 100 µM (inactive)
RPMI-8226
  GI50: > 100 µM (inactive)
RXF 393
  GI50: > 100 µM (inactive)
786-0
  GI50: > 100 µM (inactive)
HCT-15
  GI50: > 100 µM
OVCAR-5
  GI50: > 100 µM (inactive)
DU-145
  GI50: > 100 µM (inactive)
BT-549
  GI50: > 100 µM (inactive)
M14
  GI50: > 100 µM (inactive)
COLO 205
  GI50: > 100 µM (inactive)
SF-295
  GI50: > 100 µM (inactive)
NCI-H226
  GI50: > 100 µM (inactive)
SNB-75
  GI50: > 100 µM (inactive)
SK-OV-3
  GI50: > 100 µM (inactive)
HOP-92
  GI50: > 100 µM (inactive)
HOP-62
  GI50: > 100 µM (inactive)
LOX IMVI
  GI50: > 100 µM (inactive)
A549
  GI50: > 100 µM (inactive)
SW-620
  GI50: > 100 µM (inactive)
TK-10
  GI50: > 100 µM (inactive)
NCI-H522
  GI50: > 100 µM (inactive)
EKVX
  GI50: > 100 µM (inactive)
ACHN
  GI50: > 100 µM (inactive)
IGROV-1
  GI50: > 100 µM (inactive)
HCC 2998
  GI50: > 100 µM (inactive)
OVCAR-4
  GI50: > 100 µM (inactive)
MDA-N
  GI50: > 100 µM (inactive)
SK-MEL-5
  GI50: > 100 µM (inactive)
MDA-MB-435
  GI50: > 100 µM (inactive)
MDA-MB-231
  GI50: > 100 µM (inactive)
MCF7
  GI50: > 100 µM (inactive)
HL-60
  GI50: > 100 µM (inactive)
Hs-578T
  GI50: > 100 µM (inactive)
KM12
  GI50: > 100 µM (inactive)
T47D
  GI50: > 100 µM (inactive)
HT-29
  GI50: > 100 µM (inactive)
NCI/ADR-RES
  GI50: > 100 µM (inactive)
SK-MEL-28
  GI50: > 100 µM (inactive)
SNB-19
  GI50: > 100 µM (inactive)
SF-539
  GI50: > 100 µM (inactive)

## CCOC(=O)NC(Nc1ccc(C)cc1)(C(F)(F)F)C(F)(F)F
K562
  GI50: > 100 µM (inactive)
NCI-H460
  GI50: > 100 µM (inactive)
HCT-116
  GI50: > 100 µM (inactive)
OVCAR-8
  GI50: > 100 µM (inactive)
NCI-H23
  GI50: > 100 µM (inactive)
SN12C
  GI50: > 100 µM (inactive)
UACC-62
  GI50: > 100 µM (inactive)
U-251
  GI50: > 100 µM (inactive)
PC-3
  GI50: > 100 µM (inactive)
Malme-3M
  GI50: > 100 µM (inactive)
UO-31
  GI50: > 100 µM (inactive)
OVCAR-3
  GI50: > 100 µM (inactive)
SF-268
  GI50: > 100 µM (inactive)
RPMI-8226
  GI50: > 100 µM (inactive)
786-0
  GI50: > 100 µM (inactive)
HCT-15
  GI50: > 100 µM
CCRF-CEM
  GI50: > 100 µM (inactive)
OVCAR-5
  GI50: > 100 µM (inactive)
DU-145
  GI50: > 100 µM (inactive)
BT-549
  GI50: > 100 µM (inactive)
M14
  GI50: > 100 µM (inactive)
COLO 205
  GI50: > 100 µM (inactive)
SF-295
  GI50: > 100 µM (inactive)
NCI-H226
  GI50: > 100 µM (inactive)
SNB-75
  GI50: > 100 µM (inactive)
SK-OV-3
  GI50: > 100 µM (inactive)
HOP-92
  GI50: > 100 µM (inactive)
HOP-62
  GI50: > 100 µM (inactive)
LOX IMVI
  GI50: > 100 µM (inactive)
A549
  GI50: > 100 µM (inactive)
SW-620
  GI50: > 100 µM (inactive)
TK-10
  GI50: > 100 µM (inactive)
MOLT-4
  GI50: > 100 µM (inactive)
NCI-H522
  GI50: > 100 µM (inactive)
A498
  GI50: > 100 µM (inactive)
ACHN
  GI50: > 100 µM (inactive)
IGROV-1
  GI50: > 100 µM (inactive)
HCC 2998
  GI50: > 100 µM (inactive)
OVCAR-4
  GI50: > 100 µM (inactive)
MDA-N
  GI50: > 100 µM (inactive)
SK-MEL-5
  GI50: > 100 µM (inactive)
MDA-MB-435
  GI50: > 100 µM (inactive)
MDA-MB-231
  GI50: > 100 µM (inactive)
MCF7
  GI50: > 100 µM (inactive)
HL-60
  GI50: > 100 µM (inactive)
Hs-578T
  GI50: > 100 µM (inactive)
KM12
  GI50: > 100 µM (inactive)
T47D
  GI50: > 100 µM (inactive)
HT-29
  GI50: > 100 µM (inactive)
NCI/ADR-RES
  GI50: > 100 µM (inactive)
SK-MEL-28
  GI50: > 100 µM (inactive)
SNB-19
  GI50: > 100 µM (inactive)
SF-539
  GI50: > 100 µM (inactive)
